Reference: US20150017638A1, “METHODS FOR ASSESSING RISK FOR CANCER USING BIOMARKERS” (THE TRUSTEES OF THE UNIVERSITY OF PENNSYLVANIA, priority 2012, published 2015)

Columns and labels:
[1] = tested on: Primary cell lines derived from PanIN mice (sorted YFP+ cells); assay: In vitro exposure of PanIN-derived primary cell lines to cerulein, dexamethasone, TGF-b; format: cell-based, mouse; details: 48 hr; for cell morphology: dexamethasone 1 mM, vs DMSO vehicle
Method: Cells destined for transcriptional analysis were sorted into either RLT buffer (QIAGEN) or Trizol LS Reagent (Invitrogen). RNA was extracted from samples >1,000 cells using the RNEasy kit (QIAGEN). RNA from samples with fewer cells, including all sorted blood cell samples, was isolated using the PicoPure Extraction kit as directed (Arcturus). qPCR was performed as previously described (Zong et al., 2009), and primary sequences used are listed in Table 1, below. Relative expression was determined after adjusting for GAPDH. Genomic DNA was extracted from sorted CPCs pooled from three tumor-bearing mice using phenol or DNeasy kit (QIAGEN).
Primary cell lines were derived from PanIN mice after sorting pancreas single-cell suspensions for YFP^+ cells. Sorted YFP^+ cells were then placed in six-well plates in pancreatic ductal cell media (Schreiber et al., 2004) and passaged at 80% confluence, Cells were transferred to multiple 6-well plates (250,000 cells per well) in pancreatic ductal cell media containing DMSO vehicle, cerulein (100 nM, Sigma), dexamethasone (Dex, 1 mM, Sigma), TGF-b (5 ng/ml, Peprotech), or Dex (1 mM) and TGF-b (5 ng/ml). Morphology was photodocumented at 6 hr, 24 hr, and 48 hr after treatment using an inverted microscope. After 48 hr of exposure, cells were counted and RNA isolated, cDNA synthesized, and qPCR performed as described above.

[2] = tested on: murine PanIN disease; details: Guerra et al., 2011; cited from earlier work
[3] = tested on: CY, KCY, PanIN PKCY, and PDAC PKCY mice; assay: Experimental acute pancreatitis elicited with cerulein in lineage-labeled mice; format: in vivo, mouse
Source text: The behavior of mutant strains bearing various allele combinations of Pdx1-Cre KrasG12D, p16/p19fl, and p53fl has been described previously (Aguirre et al., 2003; Bardeesy et al., 2006; Hingorani et al., 2003; and U.S. patent application Ser. No. 11/503,499, the contents of which are expressly incorporated herein by reference). To perform lineage tracing, a RosaYFP reporter allele was introduced into these mutant backgrounds to generate a panel of compound mutant strains: Pdx1-Cre; RosaYFP (“CY”), Pdx 1-Cre; KrasG12D; RosaYFP (“KCY”), Pdx1-Cre; KrasG12D; p16/p19fl/+; RosaYFP (“IKCY”), and Pdx1-Cre; KrasG12D; p53fl/+; RosaYFP (“PKCY”). All experiments involving the KCY model employed mice between 8 and 10 weeks of age. For studies involving mice harboring only PaniN lesions by histologic analysis (“PanIN” mice), PKCY animals were sacrificed at 8-10 weeks of age based on prior observations regarding tumor progression (Bardeesy et al., 2006); no PKCY mice (out of 18 examined) had evidence of carcinoma at this time point. […] More than 90% of IKCY and PKCY mice were 34-38 weeks of age or 16-20 weeks of age, respectively, at the time of sacrifice.
Experimental pancreatitis was elicited with cerulein as described (Siveke et al., 2008), and specimens were obtained after 3 days of treatment. Three to four CY, KCY, PanIN PKCY, and PDAC PKCY were used for cerulein and vehicle (PBS) treated cohorts. Orthotopic transplantations were performed on NOD/SCID mice by injecting 1×10^5 sorted pancreas cells as previously described (Mohammad et al., 1998). PKCY PanIN mice aged 10 weeks were treated with seven daily injections of dexamethasone or vehicle (DMSO) as described (Stairs et al., 2011) and analyzed 24 hours later.
For experiments involving flow cytometry and sorting of pancreatic cells, at least 25% of the tissue was saved for histologic analysis and was processed and stained. To create a single cell suspension, pancreatic tissue was rinsed vigorously in cold DMEM/F12 three times before mincing with scissors (approximately 100 chops). The minced pieces were then incubated in preheated collagenase with protease inhibitors (2 mg/ml; Sigma) for 20 min at 37° C. Vigorous vortexing was performed every 5 min during this incubation. The dissolved pieces were then poured over a […] cell strainer. The flow through was resuspended in cold 2% FCS/DMEM/F12, centrifuged, washed once, and kept on ice in the dark. Enriched blood samples or dissociated pancreatic specimens were stained for various markers prior to flow cytometric analysis (FACS Calibur, BD, or Accuri C6, Accuri Cytometers) or flow sorting (FACSVantage with FACSDiva option, BD). For analysis and sorting based on endogenous YFP and surface markers, primary antibodies (1:100) and secondary antibodies (1:50) were incubated with cells in 10% FCS/DMEM/F12 for 20 min at 4° C. Primary PanIN cell lines from IKCY and PKCY mice were used as positive controls. Isotype controls were also run. For intracellular staining of CPCs and pancreas cells, cells were washed with 10% FCS/DMEM/F12 before washing in freshly prepared 13fixation/permeabilization solution (Fix/Perm; eBioscience) followed by incubation in Fix/Perm for 30 min in the dark at 4° C. Cells were washed twice with 13 permeabilization buffer (Perm; eBioscience) before incubation in Block-P solution (10% FCS in freshly prepared Perm). After 15 min at 4° C., primary antibodies were added and incubated for an additional 20 min on ice. […]

[4] = cerulein 100 nM, Dex 1 mM, triplicate

TGF-b
expression of epithelial markers (qPCR) ([1]; TGF-b 5 ng/ml, triplicate): significant downregulation of epithelial markers | expression of mesenchymal markers Zeb1 and N-cad (qPCR) ([1]; TGF-b 5 ng/ml, triplicate): increase in the expression of the mesenchymal markers Zeb1 and N-cad | cell morphology ([1]; cerulein 100 nM, TGF-b 5 ng/ml): acquisition of a fibroblast-like morphology

CC1=C(CC(=O)O)c2cc(F)ccc2/C1=C\c1ccc([S+](C)[O-])cc1 (stereo not shown) [sulindac]
PanIN disease [2]: regression of murine PanIN disease

C[C@@H]1C[C@H]2[C@@H]3CCC4=CC(=O)C=C[C@]4(C)[C@@]3(F)[C@@H](O)C[C@]2(C)[C@@]1(O)C(=O)CO [dexamethasone]
expression of a panel of epithelial or mesenchymal markers (qPCR) [1, 4]: no effect

cerulein
circulating pancreatic cell (CPC) number ([3]; 8-week-old KCY mice, 3 days of cerulein vs vehicle): marked elevation in circulating cells | pancreas histology (ADMI and PanIN formation) ([3]; KCY mice, 8-week-old, 3 days of cerulein treatment vs vehicle): formation of ADMIs and accelerated PanIN formation | frequency of EMT in pancreas ([3]; PDAC mice, cerulein compared to vehicle): little change in the frequency of EMT | circulating pancreatic cell (CPC) number ([3]; across all groups (CY, KCY, PKCY PanIN, PDAC), p=0.014 by two-way ANOVA): significant increase in CPC number | EMT (YFP+Zeb1+ cells) in pancreas ([3]; control (CY) and KCY mice): emergence of YFP^+Zeb1^+ cells | expression of a panel of epithelial or mesenchymal markers (qPCR) [1, 4]: no effect | proliferation [1, 4]: no effect on proliferation | cell morphology ([1]; cerulein 100 nM, TGF-b 5 ng/ml): identical morphology as vehicle-treated cells
